{
  "source": "patent US20100041621A1",
  "about": "“METHODS AND COMPOSITIONS FOR IMPROVING COGNITIVE PERFORMANCE” (priority 2008, published 2010)",
  "key": {"[1]": {"test_system": "anterior cingulate cortex (ACC)", "experiment": "31P MRSI (3D-CSI, 4 Tesla) of phosphorus metabolites in the anterior cingulate cortex after six weeks of oral citicoline", "format": "in vivo, human", "details": "6 weeks, doses pooled, mean ± SD", "description": "(§1) ^31P data were collected using a three-dimensional chemical shift imaging (3D-CSI) technique at 4 Tesla in healthy middle-aged individuals. The use of 3D-CSI at high field has several advantages over previous methods: 1) increased spectral dispersion, which allows for increased precision of metabolite quantification; 2) post-processing grid shifting that allows for 3D placement of voxels of interest; and 3) the ability to co-register voxel placement between baseline and post-treatment follow-up. High-energy metabolite peaks quantified in the present study include phosphocreatine (PCr), β-nucleoside triphosphate (NTP, ATP in brain), and inorganic phosphate (Pi). Phospholipid membrane metabolite peaks quantified include anabolites, phosphomonoesters (PME), including phosphoethanolamine (PE) and phosphocholine (PC), and catabolites, phosphodiesters (PDE), including glycerophosphoethanolamine (GPE) and glycerolphosphocholine (GPC). A region of interest approach was used to examine phosphorus metabolite levels in the anterior cingulate cortex (ACC), given the notable age-related decline in frontal brain metabolism and impairment of frontally-mediated cognitive functions. A comparison region placed in the parieto-occipital cortex (POC) was also evaluated. It was hypothesized that oral supplementation with citicoline would improve frontal bioenergetic metabolism via elevations in availability of high-energy phosphates, as well as alteration of membrane phospholipid turnover by providing additional membrane precursors.\n(§2) Subjects included sixteen neurologically and psychiatrically healthy adults (mean age=47.3±5.4 years; 8 females, 8 males). Trained research technicians administered a structured clinical psychiatric interview using the Structured Clinical Interview for DSM-IV (SCID). All subjects were free of Axis I diagnoses, neurological illness, severe medical problems, and psychoactive substance use.\n(§3) Subjects were randomly assigned to receive a six-week supply of either 500 mg (4 males and 4 females) or 2000 mg (4 males and 4 females) of Cognizin® Citicoline (Kyowa Hakko Kogyo Co., Ltd., JAPAN). Subjects were instructed to take one capsule every day (500 mg group) or four capsules every day in a single dose (2000 mg group) for six weeks. […] Magnetic resonance spectroscopy (MRS) was completed on all subjects in two imaging sessions: one prior to beginning treatment (baseline) and one after completing six weeks of treatment.\n(§4) All proton imaging was performed using the proton channel of the dual tuned open face proton-phosphorus TEM whole-head coil from Bioengineering Inc. (Minneapolis, Minn.) operating at a nominal frequency of 170.3 MHz. A 2D gradient-recalled echo imaging sequence (12 seconds duration) was used to acquire a single image in all three spatial dimensions (sagittal, coronal, axial) to quickly determine the patient's position and angle. High-contrast, T1-weighted sagittal, coronal images as well as T1 and T2-weighted transverse images of the entire brain were acquired using a three-dimensional, magnetization-prepared FLASH imaging sequence (3D-MP FLASH), allowing for clear segmentation between grey-matter, white-matter, and CSF, as well as clearly delineating between the different anatomical regions of interest. This approach was used to optimize […] voxel positioning, and volumetric correction in the regions of interest.\n(§5) Phosphorus MRSI was performed using the phosphorus channel of the dual tuned proton-phosphorus TEM whole-head coil from Bioengineering Inc. (Minneapolis, Minn.) operating at 68.9 MHz. Phosphorus MRSI data were recorded using a three-dimensional chemical shift imaging (3D-CSI) sequence (Garraux, Neuroimage 10:149-162, 1999). […]"}, "[2]": {"test_system": "parieto-occipital cortex (POC)", "experiment": "31P MRSI (3D-CSI, 4 Tesla) of phosphorus metabolites in the parieto-occipital cortex (comparison region) after six weeks of oral citicoline", "format": "in vivo, human", "description": "as §1, §2, §3, §4, §5"}, "[3]": {"test_system": "axial brain slice through the frontal and occipital cortices", "details": "elderly subjects (69.4±5.6 years), 6 weeks of treatment, 1.5 Tesla; cited from earlier work"}, "[4]": {"details": "POC, six weeks, at either dose (500 or 2000 mg)"}},
  "data": [
    {"smiles": "C[N+](C)(C)CCOP(=O)(O)OP(=O)([O-])OC[C@H]1O[C@@H](n2ccc(N)nc2=O)[C@H](O)[C@@H]1O", "note": "[citicoline, CDP-choline]", "values": [
      {"measurement": "PC, metabolite ratio relative to total 31P signal", "setting": "[1]; baseline .026 ± .010, p .02", "result": ".019 ± .008"},
      {"measurement": "GPE, metabolite ratio relative to total 31P signal", "setting": "[1]; baseline .039 ± .010, p .01", "result": ".030 ± .009"},
      {"measurement": "PE, metabolite ratio relative to total 31P signal", "setting": "[1]; baseline .043 ± .015, p .04", "result": ".054 ± .008"},
      {"measurement": "GPC, metabolite ratio relative to total 31P signal", "setting": "[1]; baseline .051 ± .015, ns", "result": ".047 ± .016"},
      {"measurement": "β-NTP, metabolite ratio relative to total 31P signal", "setting": "[1]; baseline .066 ± .012, p .05", "result": ".075 ± .014"},
      {"measurement": "PME, metabolite ratio relative to total 31P signal", "setting": "[1]; baseline .069 ± .016, ns", "result": ".073 ± .012"},
      {"measurement": "Pi, metabolite ratio relative to total 31P signal", "setting": "[1]; baseline .073 ± .012, p .15", "result": ".065 ± .022"},
      {"measurement": "change in phospholipid membrane metabolites", "setting": "[2]; POC region of interest, baseline vs six weeks", "result": "No significant changes"},
      {"measurement": "PC, metabolite ratio relative to total 31P signal", "setting": "[2]; POC, 6 weeks, doses pooled, mean ± SD, baseline .023 ± .009, ns", "result": ".026 ± .012"},
      {"measurement": "GPE, metabolite ratio relative to total 31P signal", "setting": "[2]; POC, 6 weeks, doses pooled, mean ± SD, baseline .034 ± .011, ns", "result": ".032 ± .014"},
      {"measurement": "GPC, metabolite ratio relative to total 31P signal", "setting": "[2]; POC, 6 weeks, doses pooled, mean ± SD, baseline .047 ± .017, ns", "result": ".047 ± .010"},
      {"measurement": "β-NTP, metabolite ratio relative to total 31P signal", "setting": "[2]; POC, 6 weeks, doses pooled, mean ± SD, baseline .063 ± .009, ns", "result": ".066 ± .010"},
      {"measurement": "PE, metabolite ratio relative to total 31P signal", "setting": "[2]; POC, 6 weeks, doses pooled, mean ± SD, baseline .065 ± .009, ns", "result": ".058 ± .010"},
      {"measurement": "Pi, metabolite ratio relative to total 31P signal", "setting": "[2]; POC, 6 weeks, doses pooled, mean ± SD, baseline .072 ± .010, ns", "result": ".075 ± .013"},
      {"measurement": "PME, metabolite ratio relative to total 31P signal", "setting": "[2]; POC, 6 weeks, doses pooled, mean ± SD, baseline .088 ± .015, ns", "result": ".084 ± .011"},
      {"measurement": "change in PCr/Pi ratio", "setting": "[2]; [4]", "result": "No changes"},
      {"measurement": "change in Pi", "setting": "[2]; [4]", "result": "No changes"},
      {"measurement": "change in phosphodiesters (PDE, phospholipid membrane catabolites)", "setting": "[3]", "result": "significant increase"}
    ]}
  ]
}
